This is an account of results in patent US12552758B2, “Inhibitors of MLH1 and/or PMS2 for cancer treatment” (NeoPhore Limited, priority 2020, dated 2026).

Structures are written as SMILES.

Experiment [1] has as its target recombinant N-terminal PMS2 (residues 1-365) (Homo sapiens (Human), UniProt P54278). The experiment can be described thus: Fluorescence polarisation assay for PMS2. It counts as binding. The note with it: FP probe displacement; 10 nM N-terminal PMS2, 5 nM probe compound, read after 1 hour. Summed up:
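Displacement of a 5 nM (final) fluorescent probe from 10 nM human PMS2 (residues 1–365) is read as polarisation after 1 h at room temperature, following 30 min compound–protein pre-incubation. No-enzyme (set to 35 mP) and no-inhibitor wells define normalisation.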
For orientation: Fluorescence polarisation rises when a labelled molecule tumbles more slowly, as on binding a larger partner.

Experiment [2] deals with recombinant N-terminal MLH1 (residues 15-340) (Homo sapiens (Human), UniProt P40692). Put plainly: Fluorescence polarisation assay for MLH1 (protocol for Examples 64, 76, 90 and 95). The note with it: FP probe displacement, 100 nM N-terminal MLH1, 5 nM probe compound, non-binding surface plate, read immediately. The protocol: Fluorescence Polarisation Assay for MLH1 (Protocol for Examples 64, 76, 90 and 95)
Test compounds, as 10 mM DMSO stocks, were dispensed into a 384-well Low Flange Black Flat Bottom Polystyrene Non-binding Surface plate (Corning®, item number 3575) using a Labcyte Echo acoustic liquid handler. Test compounds were added to wells in columns 1-22 whilst DMSO was added to wells in columns 23 and 24 in order to normalise the plate. 20 μL of a 2× solution (200 nM) of recombinant N-terminal MLH1 (residues 15-340) in assay buffer (25 mM HEPES, pH 7.5, 250 mM NaCl, 10 mM MgCl2, 0.01% Triton X-100, 5 mM dithiothreitol) was added to all wells in columns 1-23 and 20 μL assay buffer was added to all wells in column 24 using an E1-ClipTip pipette (ThermoFisher). Plates were centrifuged for 1 minute at 250×g and were incubated at room temperature for 30 minutes prior to the addition of 20 μL of 2×(10 nM) 5-((5-(4-((2-(2,4-dihydroxy-5-isopropylbenzoyl)isoindolin-5-yl)methyl)piperazin-1-yl)pentyl)carbamoyl)-2-(6-(dimethylamino)-3-(dimethyliminio)-3H-xanthen-9-yl)benzoate in assay buffer (prepared from a 1 mM DMSO stock) with an E1-ClipTip pipette (ThermoFisher). The final concentration of N-terminal MLH1 was 100 nM and the final concentration of the probe compound was 5 nM. Compound plates were centrifuged for 1 minute at 250 xg for 1 minute and immediately read on a PheraStar FSX (fitted with 384-well aperture spoon and 590 675 675 FP optic module). The gain and focus were adjusted before each plate was read so that the polarisation of a no enzyme control (column 24) was equal to 35 mP. Data were normalised against the no inhibitor controls (column 23) and no enzyme controls (column 24).

Chain of recombinant N-terminal MLH1 (residues 15-340) (P40692 15-340): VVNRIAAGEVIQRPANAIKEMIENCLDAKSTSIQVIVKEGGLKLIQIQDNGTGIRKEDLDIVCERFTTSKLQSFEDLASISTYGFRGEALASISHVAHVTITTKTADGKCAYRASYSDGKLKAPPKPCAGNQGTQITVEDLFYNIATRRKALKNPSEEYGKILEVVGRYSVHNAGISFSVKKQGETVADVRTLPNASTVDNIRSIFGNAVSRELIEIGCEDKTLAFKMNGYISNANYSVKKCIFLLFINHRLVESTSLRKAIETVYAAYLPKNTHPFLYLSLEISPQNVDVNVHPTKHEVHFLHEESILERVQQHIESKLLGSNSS
Chain of recombinant N-terminal PMS2 (residues 1-365) (P54278 1-365): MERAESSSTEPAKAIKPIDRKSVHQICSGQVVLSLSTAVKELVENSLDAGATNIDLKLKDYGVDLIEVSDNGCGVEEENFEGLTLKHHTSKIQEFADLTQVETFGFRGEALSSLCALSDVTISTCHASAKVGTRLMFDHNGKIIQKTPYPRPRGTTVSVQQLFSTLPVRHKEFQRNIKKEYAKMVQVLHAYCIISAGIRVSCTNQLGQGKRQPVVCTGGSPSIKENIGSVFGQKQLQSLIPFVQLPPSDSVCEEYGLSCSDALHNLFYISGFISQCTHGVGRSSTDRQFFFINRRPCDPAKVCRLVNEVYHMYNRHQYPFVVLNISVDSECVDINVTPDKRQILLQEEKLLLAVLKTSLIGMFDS

As a reminder, the IC50 is the concentration needed to halve the response being measured. Consider `Cc1c(O)cc(O)c(C(=O)N2Cc3ccccc3C[C@@H]2CO)c1OCc1ccccc1` [Example 64, (R)-(2-(benzyloxy)-4,6-dihydroxy-3-methylphenyl)(3-(hydroxymethyl)-3,4-dihydroisoquinolin-2(1H)-yl)methanone], for which the half-inhibitory concentration (IC50) in experiment [1] was 1000 to 10000 nM; in experiment [2] it was over 10 µM.

Regarding `Cc1c(O)cc(O)c(C(=O)N2Cc3cccc(CN4CCOCC4)c3C2)c1OCc1ccccc1` [Example 76, (2-(Benzyloxy)-4,6-dihydroxy-3-methylphenyl)(4-(morpholinomethyl)isoindolin-2-yl)methanone], the IC50 in experiment [1] is 1000 to 10000 nM; in experiment [2], over 10 µM.

Regarding `Cc1c(O)cc(O)c(C(=O)N2Cc3cccc(OCc4cncnc4)c3C2)c1OCc1ccccc1` [Example 90, (2-(Benzyloxy)-4,6-dihydroxy-3-methylphenyl)(4-(pyrimidin-5-ylmethoxy)isoindolin-2-yl)methanone], the IC50 in experiment [1] was under 1000 nM; in experiment [2] it was over 10 µM.

In the case of `Cc1c(O)cc(O)c(C(=O)N2Cc3ccc(CN4CCN(C)CC4)cc3C2)c1OCC1CC1` [Example 95, (2-(Cyclopropylmethoxy)-4,6-dihydroxy-3-methylphenyl)(5-((4-methylpiperazin-1-yl)methyl)isoindolin-2-yl)methanone], the IC50 in experiment [1] was under 1000 nM; in experiment [2], over 10 µM.
